Data as given in ChEMBL document CHEMBL5518163, “Brazilin-7-acetate, a novel potential drug of Parkinson's disease, hinders the formation of α-synuclein fibril, mitigates cytotoxicity, and decreases oxidative stress” (Eur J Med Chem, 2024).
Values belong to the compound of their own block, whether it stands above or below them. The source made the active and inactive calls. The calls are words filed in the database; no cut-off is given here.

Tests used:
[1] = system: PC-12; assay: Cytotoxicity against rat PC12 cells assessed as survival rate at 25 uM incubated for 10 days by MTT assay relative to control; type: functional; conditions: time 10 day
[2] = system: PC-12; assay: Cytotoxicity against rat PC12 cells assessed as survival rate at 50 uM incubated for 10 days by MTT assay relative to control; type: functional; conditions: time 10 day
[3] = system: PC-12; assay: Cytotoxicity against rat PC12 cells assessed as survival rate at 100 uM incubated for 10 days by MTT assay relative to control; type: functional; conditions: time 10 day
[4] = system: PC-12; assay: Cytotoxicity against rat PC12 cells assessed as survival rate at 50 to 100 uM incubated for 10 days by MTT assay relative to control; type: functional; conditions: dose 50-100 µM, time 10 day
[5] = target: Alpha-synuclein (Homo sapiens) (UniProt P37840); assay: Inhibition of recombinant alpha-synuclein (unknown origin) fibrillation at 1 to 20 uM measured after 30 mins by ThT fluorescence based spectrofluorometer analysis relative to control; conditions: dose 1-20 µM
[6] = system: PC-12; assay: Protection against alpha-synuclein induced rat PC12 cells death assessed as survival rate at alpha-synuclein to compound molar ratio 1:0.5 pre-incubated with alpha-synuclein for 10 days followed by cell addition and measured after 48 hrs by MTT assay (reference value: 58.07%); type: functional
[7] = system: PC-12; assay: Protection against alpha-synuclein induced rat PC12 cells death assessed as survival rate at alpha-synuclein to compound molar ratio 1:1 pre-incubated with alpha-synuclein for 10 days followed by cell addition and measured after 48 hrs by MTT assay (reference value: 58.07%); type: functional
[8] = system: PC-12; assay: Protection against alpha-synuclein induced rat PC12 cells death assessed as survival rate at alpha-synuclein to compound molar ratio 1:2 pre-incubated with alpha-synuclein for 10 days followed by cell addition and measured after 48 hrs by MTT assay (reference value: 58.07%); type: functional
[9] = system: Caenorhabditis elegans; assay: In vivo inhibition of alpha-synuclein aggregation in transgenic Caenorhabditis elegans NL5901 expressing YFP-tagged alpha-synuclein at 100 uM under L4 stage to adult stage on day 5 and 10 by fluorescence based confocal microscope analysis; type: functional; conditions: time 5.0 day
[10] = system: Caenorhabditis elegans; assay: In vivo inhibition of alpha-synuclein aggregation in transgenic Caenorhabditis elegans NL5901 expressing YFP-tagged alpha-synuclein assessed as reduction in number of alpha-synuclein aggregates plaques at 100 uM incubated for 5 days by fluorescence based confocal microscope analysis; type: functional; conditions: time 5.0 day
[11] = In vivo inhibition of alpha-synuclein aggregation in transgenic Caenorhabditis elegans NL5901 expressing YFP-tagged alpha-synuclein assessed as quantity of plaques at 100 uM on day 5 by fluorescence based confocal microscope analysis (reference value: 24.7); type: functional; conditions: time 5 day
[12] = In vivo inhibition of alpha-synuclein aggregation in transgenic Caenorhabditis elegans NL5901 expressing YFP-tagged alpha-synuclein assessed as quantity of plaques at 100 uM on day 10 by fluorescence based confocal microscope analysis (reference value: 31.5); type: functional; conditions: time 5 day
[13] = system: Caenorhabditis elegans; assay: Improvement in movement disorder in transgenic Caenorhabditis elegans NL5901 expressing YFP-tagged alpha-synuclein assessed as increase in number of bends at 100 uM measured on day 5 (reference value: 29.5); type: functional; conditions: time 5 day
[14] = system: Caenorhabditis elegans; assay: Improvement in movement disorder in transgenic Caenorhabditis elegans NL5901 expressing YFP-tagged alpha-synuclein assessed as increase in number of bends at 100 uM measured on day 10 (reference value: 11.1); type: functional; conditions: time 5 day
[15] = system: Caenorhabditis elegans; assay: Improvement in life span of transgenic Caenorhabditis elegans NL5901 expressing YFP-tagged alpha-synuclein assessed as decrease in death rate at 100 uM incubated for 5 days; type: functional, organism-based; conditions: time 5.0 day
[16] = system: Caenorhabditis elegans; assay: Improvement in life span of transgenic Caenorhabditis elegans NL5901 expressing YFP-tagged alpha-synuclein assessed as increase in lifespan at 100 uM (reference value: 16 day); type: functional; conditions: time 5 day
[17] = system: Caenorhabditis elegans; assay: Improvement in life span of transgenic Caenorhabditis elegans NL5901 expressing YFP-tagged alpha-synuclein assessed as increase in average lifespan at 100 uM (reference value: 8.52 day); type: functional; conditions: time 5 day
[18] = system: Caenorhabditis elegans; assay: (§1) Inhibition of oxidative stress in transgenic Caenorhabditis elegans NL5901 expressing YFP-tagged alpha-synuclein assessed as reduction in ROS level by measuring fluorescence intensity at 100 uM incubated for 5 days by DHE staining based confocal laser scanning microscope analysis; type: functional, organism-based; conditions: time 5.0 day
[19] = system: Caenorhabditis elegans; assay: as §1, with “in” for “in transgenic”, “decrease” for “reduction”, “measuring average” for “measuring”, “analysis (reference value: 1600%)” for “analysis”; type: functional; set-up: scale not given: the % may be the effect or the level left; conditions: time 5 day
[20] = system: Caenorhabditis elegans; assay: Antioxidant activity in transgenic Caenorhabditis elegans NL5901 expressing YFP-tagged alpha-synuclein assessed as increase in SOD activity at 100 uM incubated for 5 days (reference value: 33.32 %); type: functional; conditions: time 5 day
[21] = system: Caenorhabditis elegans; assay: Antioxidant activity against transgenic Caenorhabditis elegans NL5901 expressing YFP-tagged alpha-synuclein assessed as increase in GSH-PX activity at 100 uM incubated for 5 days (reference value: 46.36 %); type: functional; conditions: time 5 day
[22] = system: Caenorhabditis elegans; assay: Antioxidant activity against transgenic Caenorhabditis elegans NL5901 expressing YFP-tagged alpha-synuclein assessed as decrease in MDA content at 100 uM incubated for 5 days (reference value: 288.94 %); type: functional; set-up: scale not given: the % may be the effect or the level left; conditions: time 5 day
[23] = system: Caenorhabditis elegans; assay: Antioxidant activity against transgenic Caenorhabditis elegans NL5901 expressing YFP-tagged alpha-synuclein assessed as increase in lipid content by measuring fluorescence intensity at 100 uM incubated for 5 days by Nile Red staining based confocal laser scanning microscope analysis (reference value: 41.32 %); type: functional; conditions: time 5 day
[24] = system: Caenorhabditis elegans; assay: Antioxidant activity against transgenic Caenorhabditis elegans NL5901 expressing YFP-tagged alpha-synuclein assessed as decrease in MDA content relative to control; type: functional; set-up: scale not given: the % may be the effect or the level left
[25] = system: Caenorhabditis elegans; assay: Antioxidant activity against transgenic Caenorhabditis elegans NL5901 expressing YFP-tagged alpha-synuclein assessed as increase in lipid content relative to control; type: functional

SMILES: Oc1ccc2c(c1)OC[C@]1(O)Cc3cc(O)c(O)cc3[C@H]21 [BRAZILIN]
Activity [1]: 82.15% | Activity [2]: 66.74% | Activity [3]: 60.46% | Activity [4]: ~20%

inhibition [5]: 82.3%
SMILES: COc1ccc(-c2coc3cc(O)ccc3c2=O)cc1O

SMILES: CC(=O)Oc1ccc2c(c1)OC[C@]1(O)Cc3cc(O)c(O)cc3[C@H]21
Activity [1]: 82.15% | Activity [2]: 66.74% | Activity [3]: 60.46% | Activity [6]: 72.26% | Activity [7]: 85.21% | Activity [8]: 93.51% | inhibition [9]: Active | inhibition [10]: Active | Activity [11]: 7.2 | Activity [12]: 16.2 | Activity [13]: 8.4 | Activity [14]: 7.6 | Activity [15]: Active | ILS [16]: 19 days | ILS [17]: 10.35 days | Activity [18]: Active | Activity [19]: 723.6% | Activity [20]: 60% | Activity [21]: 81.81% | Activity [22]: 133% | Activity [23]: 57.69%

SMILES: O=C(/C=C/c1ccc(O)c(O)c1)O[C@@H]1C[C@](O)(C(=O)O)C[C@@H](O)[C@H]1O [CHLOROGENIC ACID]
Activity [24]: ~50% | Activity [25]: ~5%
